According to patent publication US7632870B2, “Composition based on substituted 1,3-diphenylprop-2-en-1-one derivatives, preparation and uses thereof” (Genfit, priority 2002, dated 2009):

Key:
[1] = test system: LDL; assay: Protection against LDL oxidation by copper (conjugated diene formation); assay type: biochemical; details: FIG. 1-3; compound at 10^-4M; copper alone 348
Method: LDL oxidation is an important alteration and plays a predominant role in the establishment and development of atherosclerosis (Jurgens, Hoff et al. 1987). […] Unless otherwise indicated, the reagents were from Sigma (St Quentin, France).
LDL were prepared according to the method described by Lebeau et al. (Lebeau, Furman et al. 2000).
The solutions of test compounds were prepared at 10^−2 M concentration in bicarbonate buffer (pH 9) and diluted in PBS to obtain final concentrations ranging from 0.1 to 100 μM for a total ethanol concentration of 1% (V/V).
Prior to oxidation, EDTA was removed from the LDL preparation by dialysis. Oxidation then took place at 30° C. by addition of 100 μl of 16.6 μM CuSO4 solution to 160 μL of LDL (125 μg protein/ml) and 20 μl of a test compound solution. The formation of dienes, the species under observation, was followed by measuring optical density at 234 nm in the samples treated with the compounds but in the presence or absence of copper. Optical density at 234 nm was measured every 10 minutes for 8 hours in a thermostated spectrophotometer (Tecan Ultra 380). The analyses were performed in triplicate. The compounds were considered to have antioxidant activity when they induced a longer lag phase and reduced the rate of oxidation and the amount of dienes formed in comparison with the control sample. […] FIGS. 1, 2 and 3 give an example of the results illustrating the antioxidant properties of compounds 2 and 5.

[2] = target: T1, PPARα (Homo sapiens, UniProt Q07869); assay: PPARα/Gal4 transactivation system in RK13 cells (luciferase reporter); assay type: cell-based, rabbit; details: 24 hours
T1 construct: expressed in transfected cells; host or cells: RK13 cells
T1 sequence (Q07869 239-466 limits assumed): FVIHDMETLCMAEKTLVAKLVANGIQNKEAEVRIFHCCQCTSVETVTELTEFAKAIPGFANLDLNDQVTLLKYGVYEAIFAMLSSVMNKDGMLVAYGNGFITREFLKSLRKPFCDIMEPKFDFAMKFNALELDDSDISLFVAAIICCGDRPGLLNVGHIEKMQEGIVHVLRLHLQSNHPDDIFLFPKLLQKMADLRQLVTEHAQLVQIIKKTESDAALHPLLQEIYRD
Method: RK13 cells were incubated with the different compounds at concentrations of 10, 30 and 100 μM or 1, 10 and 100 μM for 24 hours. The results are expressed as the induction factor (luminescent signal relative to untreated cells) after the different treatments.
(§1) PPAR activation was tested in vitro in RK13 fibroblast cell lines by measuring the transcriptional activity of chimeras composed of the DNA binding domain of the yeast gal4 transcription factor and the ligand binding domain of the different PPARs. These latter results were then confirmed in cell lines according to the following protocols:
(§2) RK13 cells were from ECACC (Porton Down, UK) and were grown in DMEM medium supplemented with 10% (V/N) fetal calf serum, 100 U/ml penicillin (Gibco, Paisley, UK) and 2 mM L-glutamine (Gibco, Paisley, UK). The culture medium was changed every two days. Cells were kept at 37° C. in a humidified 95% air/5% CO2 atmosphere.
(§3) The plasmids pG5TkpGL3, pRL-CMV, pGal4-hPPRAα, pGal4-hPPRAγ and pGal4-φ have been described by Raspe, Madsen et al. (1999). The pGal4-mPPRAα and pGal4-hPPRAγ constructs were obtained by cloning into the pGal4-φ vector of PCR-amplified DNA fragments corresponding to the DEF domains of the human PPARα and PPRAγ nuclear receptors.
[…] At the end of the experiment, the cells were lysed (Gibco, Paisley, UK) and luciferase activity was determined with a Dual-Luciferase™ Reporter Assay System kit (Promega, Madison, Wis., USA) according to the supplier's instructions as previously described (Raspe, Madsen et al. 1999).

[3] = target: T2, PPARγ (Homo sapiens, UniProt P37231); assay: PPARγ/Gal4 transactivation system in RK13 cells (luciferase reporter); assay type: cell-based; details: 24 hours
T2 construct: expressed in transfected cells; host or cells: RK13 cells
T2 sequence (P37231 238-503 limits assumed): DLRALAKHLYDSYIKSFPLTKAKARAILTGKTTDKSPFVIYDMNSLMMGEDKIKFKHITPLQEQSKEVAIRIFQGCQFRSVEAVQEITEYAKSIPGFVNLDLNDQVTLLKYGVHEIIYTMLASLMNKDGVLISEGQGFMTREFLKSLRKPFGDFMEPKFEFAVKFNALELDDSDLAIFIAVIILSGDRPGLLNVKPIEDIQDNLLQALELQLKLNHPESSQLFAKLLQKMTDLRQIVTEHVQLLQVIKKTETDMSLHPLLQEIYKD
Method: RK13 cells were incubated with the different compounds at concentrations of 1, 10 and 100 μM for 24 hours. The results are expressed as the induction factor (luminescent signal relative to untreated cells) after the different treatments.
as §1, §2, §3
RK13 cells were seeded in 24-well culture dishes at 5×10^4 cells/well and transfected for 2 hours with the reporter plasmid pG5TkpGL3 (50 ng/well), the expression vectors pGal4-φ, pGal4-mPPRAα, pGal4-hPPRAα, pGal4-hPPRAγ (100 ng/well) and the transfection efficiency control vector PRL-CMV (1 ng/well) according to the previously described protocol (Raspe, Madsen et al. 1999), then incubated for 36 hours with the test compounds. At the end of the experiment, the cells were lysed (Gibco, Paisley, UK) and luciferase activity was determined with a Dual-Luciferase™ Reporter Assay System kit (Promega, Madison, Wis., USA) according to the supplier's instructions as previously described (Raspe, Madsen et al. 1999).

[4] = test system: Apo E2/E2 transgenic mice; assay: Effects on triglyceride and cholesterol metabolism in vivo
Method: Apo E2/E2 transgenic mice were kept on a 12-hour light/dark cycle at a constant temperature of 20±3° C. After a 1 week acclimation, the mice were weighed and divided into groups of 6 animals selected so that body weight would be uniformly distributed. The test compounds were suspended in carboxymethylcellulose and administered by intragastric gavage at the indicated doses, once a day for 7 or 8 days. Animals had access to food and water ad libitum. At the end of the experiment the animals were weighed and sacrificed under anesthesia. Blood was collected on EDTA. Plasma was prepared by centrifugation at 3000 rpm for 20 minutes. Liver samples were taken and stored frozen in liquid nitrogen for subsequent analysis.
Serum lipid concentrations (total cholesterol and free cholesterol, triglycerides and phospholipids) were determined by a colorimetric assay (Boehringer, Mannheim, Germany) according to the supplier's instructions. Serum concentrations of apolipoproteins AI, AII and CIII were determined as previously described (Raspe et al. J. Lipid Res. 40, 2099-2110, 1999, Asset G et al., Lipids, 34, 39-44, 1999).

Induction factor (luminescent signal relative to untreated cells) ([2]; 1 μM)	Induction factor (luminescent signal relative to untreated cells) ([2]; 10 μM, listed as Cp17)	Induction factor (luminescent signal relative to untreated cells) ([3]; 1 μM)	Induction factor (luminescent signal relative to untreated cells) ([3]; 10 μM)	Induction factor (luminescent signal relative to untreated cells) ([3]; 10 μM, listed as Cp17)	Induction factor (luminescent signal relative to untreated cells) ([3]; 100 μM)	Induction factor (luminescent signal relative to untreated cells) ([2]; 1 μM, listed as Cp33)	Induction factor (luminescent signal relative to untreated cells) ([2]; 10 μM, listed as Cp33)	Induction factor (luminescent signal relative to untreated cells) ([2]; 100 μM, listed as Cp33)	Induction factor (luminescent signal relative to untreated cells) ([3]; 100 μM, listed as Cp33)	SMILES	maximum amount of conjugated dienes formed [1]	triglycerides in large sized lipoparticles (exclusion chromatography) ([4]; gavage 200 mg/kg for 7 days, FIG. 3-3)	cholesterol in large sized lipoparticles (exclusion chromatography) ([4]; gavage 200 mg/kg for 7 days, FIG. 3-4)	triglycerides in large sized lipoparticles (exclusion chromatography) ([4]; 50 mg/kg/day for 8 days, FIG. 3-11)	cholesterol in large sized lipoparticles (exclusion chromatography) ([4]; 50 mg/kg/day for 8 days, FIG. 3-12)
79.76	85.69	15.37	25	24.92	6.13	–	–	–	–	Cc1cc(/C=C/C(=O)c2ccc(Cl)cc2)cc(C)c1OC(C)(C)C(=O)O [Compound 17, 1-[4-chlorophenyl]-3-[3,5-dimethyl-4-carboxydimethylmethyloxyphenyil]prop-2-en-1-one]	327 nmol per mg of LDL	decreased	decreased	–	–
–	–	15.65	33.90	–	45.6	22.05	44.52	77.62	45.58	CCCCCCOc1ccc(C(=O)/C=C/c2cc(C)c(OC(C)(C)C(=O)O)c(C)c2)cc1 [Compound 33, 1-[4-hexyloxyphenyl]-3-[3,5-dimethyl-4-carboxydimethylmethyloxyphenyl]prop-2-en-1-one]	–	–	–	decrease	decrease
